Experimental data reported in PubChem BioAssay (NCI).
Where “and” joins values, the source holds several entries; their conditions need not be identical. Equal entries are not always repeated.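 All cell lines were grown in 96-well plates and treated with compound for 48 hours. The concentration for 50% growth inhibition is given as GI50. TGI: total growth inhibition.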

Assays:
Assay in all cases: inhibition of tumour cell growth, NCI panel, 48 h
[1] = tested on: MCF7 breast
[2] = tested on: SR leukemia
[3] = tested on: HOP-62 NSCLC
[4] = tested on: UO-31 renal
[5] = tested on: NCI-H23 lung
[6] = tested on: KM12 colon
[7] = tested on: CCRF-CEM leukemia
[8] = tested on: HL-60(TB) leukemia
[9] = tested on: MDA-MB-231 breast
[10] = tested on: NCI-H226 lung
[11] = tested on: NCI-H460 lung
[12] = tested on: HCT-116 colon
[13] = tested on: RXF 393 renal
[14] = tested on: LOX IMVI melanoma
[15] = tested on: SF-539 CNS
[16] = tested on: SNB-75 CNS
[17] = tested on: T-47D breast
[18] = tested on: MALME-3M melanoma
[19] = tested on: LXFL 529 NSCLC
[20] = tested on: COLO 205 colon
[21] = tested on: SK-MEL-5 melanoma
[22] = tested on: OVCAR-4 ovarian
[23] = tested on: K-562 leukemia
[24] = tested on: SN12C renal
[25] = tested on: SK-OV-3 ovarian
[26] = tested on: NCI-H522 lung
[27] = tested on: DLD-1 colon
[28] = tested on: HCC-2998 colon
[29] = tested on: OVCAR-8 ovarian
[30] = tested on: MOLT-4 leukemia
[31] = tested on: HCT-15 colon
[32] = tested on: DMS 114 small cell lung
[33] = tested on: HS 578T breast
[34] = tested on: U251 CNS
[35] = tested on: SK-MEL-2 melanoma
[36] = tested on: DU-145 prostate
[37] = tested on: A549 NSCLC
[38] = tested on: UACC-62 melanoma
[39] = tested on: BT-549 breast
[40] = tested on: M14 melanoma
[41] = tested on: SK-MEL-28 melanoma
[42] = tested on: PC-3 prostate
[43] = tested on: OVCAR-3 ovarian
[44] = tested on: NCI/ADR-RES ovarian
[45] = tested on: 786-0 renal
[46] = tested on: SNB-19 CNS
[47] = tested on: ACHN renal
[48] = tested on: KM20L2 colon
[49] = tested on: UACC-257 melanoma
[50] = tested on: SF-295 CNS
[51] = tested on: SW-620 colon
[52] = tested on: TK-10 renal
[53] = tested on: RPMI-8226 leukemia
[54] = tested on: XF 498 CNS
[55] = tested on: OVCAR-5 ovarian
[56] = tested on: HOP-92 NSCLC
[57] = tested on: A498 renal
[58] = tested on: SNB-78 CNS
[59] = tested on: SF-268 CNS
[60] = tested on: MDA-MB-435
[61] = tested on: HT29 colon
[62] = tested on: MDA-N
[63] = tested on: M19-MEL melanoma
[64] = tested on: IGROV1 ovarian
[65] = tested on: HOP-18 NSCLC
[66] = tested on: CAKI-1 renal
[67] = tested on: SN12K1 renal
[68] = tested on: EKVX NSCLC
[69] = tested on: DMS 273 small cell lung

With C=C(C)C(O)CCC1(C)C=Cc2c(c(C)cc3c2[nH]c2ccccc23)O1 (configuration not stated) the TGI [1] was 26.4 µM, the GI50 [2] was 4.43 µM and the TGI [2] was 25 µM and 16.5 µM. The GI50 [3] was 2.47 µM, the TGI [3] was 9.46 µM and 6.11 µM and the GI50 [4] was 12 µM. For the same compound, the TGI [4] was 25 µM and 27.3 µM, the TGI [5] was 23.3 µM and the GI50 [6] was 2 µM. For the same compound, the TGI [6] was 12.5 µM and 4.32 µM, the GI50 [7] was 4.2 µM and the TGI [7] was 25 µM and 16.7 µM. The GI50 [8] was 4.24 µM, the TGI [8] was 25 µM and 19.9 µM and the TGI [9] was 11.4 µM. The TGI [10] was 22.7 µM and 21.7 µM, the GI50 [11] was 2.33 µM and the TGI [11] was 10.6 µM and 5.86 µM. For the same compound, the GI50 [12] was 9.87 µM, the TGI [12] was 25 µM and 21.5 µM and the GI50 [13] was 2.78 µM. For the same compound, the TGI [13] was 25 µM and 8.51 µM, the GI50 [14] was 3.12 µM and the TGI [14] was 8.4 µM and 12.2 µM. The GI50 [15] was 3.64 µM, the TGI [15] was 9.45 µM and 13.2 µM and the TGI [16] was 9.8 µM. For the same compound, the TGI [17] was 21.5 µM, the TGI [18] was 25 µM and 24.7 µM and the TGI [19] was 25 µM. For the same compound, the GI50 [20] was 2.43 µM, the TGI [20] was 9.81 µM and 6.13 µM and the GI50 [21] was 10.1 µM. For the same compound, the TGI [21] was 25 µM and 21.7 µM, the TGI [22] was 30.8 µM and the GI50 [23] was 2.78 µM. The TGI [23] was 24.6 µM and 7.13 µM, the GI50 [24] was 9.57 µM and the TGI [24] was 25 µM and 21.5 µM. For the same compound, the GI50 [25] was 11 µM, the TGI [25] was 25 µM and 22.9 µM and the GI50 [26] was 3.29 µM. For the same compound, the TGI [26] was 11.3 µM and 9.34 µM, the TGI [27] was 18.8 µM and the GI50 [28] was 2.19 µM. For the same compound, the TGI [28] was 12.1 µM and 5 µM, the GI50 [29] was 10.7 µM and the TGI [29] was 25 µM and 22.9 µM. For the same compound, the GI50 [30] was 3.47 µM, the TGI [30] was 18.7 µM and 13.8 µM and the GI50 [31] was 1.93 µM. The TGI [31] was 8.23 µM and 4.71 µM, the TGI [32] was 25 µM and the TGI [33] was 13.5 µM. For the same compound, the TGI [34] was 11.1 µM and 17.6 µM, the GI50 [35] was 2.11 µM and the TGI [35] was 8.32 µM. For the same compound, the TGI [36] was 25.1 µM, the GI50 [37] was 5.02 µM and the TGI [37] was 25 µM and 16.1 µM. The TGI [38] was 11 µM, the GI50 [39] was 12.9 µM and the TGI [39] was 25.5 µM. The GI50 [40] was 6.63 µM, the TGI [40] was 10.9 µM and 19.7 µM and the TGI [41] was 25 µM. For the same compound, the TGI [42] was 19.3 µM, the GI50 [43] was 10.3 µM and the TGI [43] was 24 µM and 22 µM. The TGI [44] was 22.6 µM, the GI50 [45] was 3.88 µM and the TGI [45] was 10.8 µM and 14.2 µM. The GI50 [46] was 11.5 µM, the TGI [46] was 25 µM and 23.6 µM and the TGI [47] was 25 µM and 16 µM. It also gave a TGI [48] of 7.57 µM, a TGI [49] of 20.5 µM and a TGI [50] of 14.8 µM. The GI50 [51] was 5.08 µM, the TGI [51] was 10.2 µM and 18.7 µM and the GI50 [52] was 14 µM. For the same compound, the TGI [52] was > 25 µM and 27 µM, the GI50 [53] was 2.96 µM and the TGI [53] was 25 µM and 8.01 µM. The TGI [54] was 25 µM, the GI50 [55] was 2.11 µM and the TGI [55] was 8.96 µM and 6.03 µM. The GI50 [56] was 10.3 µM, the TGI [56] was 25 µM and 22.8 µM and the TGI [57] was 26.6 µM. For the same compound, the TGI [58] was 25 µM, the GI50 [59] was 5.6 µM and the TGI [59] was 25 µM and 19.3 µM. For the same compound, the TGI [60] was 21.3 µM, the GI50 [61] was 1.71 µM and the TGI [61] was 8.53 µM and 3.26 µM. The TGI [62] was 17.3 µM, the TGI [63] was 25 µM and the GI50 [64] was 8.33 µM. For the same compound, the TGI [64] was 25 µM and 22 µM.
In the case of C[C@]12CC[C@@H]3c4ccc(OC(=O)N(CCCl)CCCl)cc4CC[C@H]3[C@@H]1CC[C@@H]2O, the GI50 [1] is reported as 1.08 µM, the GI50 [2] is reported as 0.135 µM and the TGI [2] is reported as 1.42 µM. The GI50 [3] was 2.44 µM, the GI50 [4] was 3.12 µM and the TGI [4] was 14 µM. It also gave a GI50 [5] of 2.79 µM, a GI50 [6] of 3.1 µM and a TGI [6] of 9.77 µM. The GI50 [7] was 1.21 µM, the TGI [7] was 6.83 µM and 3.45 µM and the GI50 [8] was 0.731 µM. It also gave a GI50 [9] of 2.59 µM, a TGI [9] of 8.29 µM and a GI50 [10] of 3.98 µM. It also gave a TGI [10] of 22.3 µM, a GI50 [11] of 2.75 µM and a TGI [11] of 12.9 µM. The GI50 [12] was 1.6 µM, the TGI [12] was 10.8 µM and the GI50 [13] was 2.23 µM. For the same compound, the TGI [13] was 6.42 µM, the GI50 [14] was 2.43 µM and the TGI [14] was 14.3 µM. For the same compound, the GI50 [15] was 1.69 µM, the TGI [15] was 4.27 µM and the GI50 [16] was 2.48 µM. The TGI [16] was 15.1 µM, the GI50 [17] was 4.83 µM and the TGI [17] was 40.7 µM. It also gave a GI50 [18] of 1.16 µM, a TGI [18] of 7.52 µM and a GI50 [20] of 2.99 µM. It also gave a TGI [20] of 8.94 µM, a GI50 [21] of 1.95 µM and a TGI [21] of 9.27 µM. The GI50 [22] was 4.36 µM, the TGI [22] was 39.5 µM and the TGI [23] was greater than 47.5 µM. The GI50 [24] was 3.37 µM, the TGI [24] was 17.4 µM and 3.48 µM and the GI50 [25] was 4.71 µM. For the same compound, the TGI [25] was 36.8 µM and 7.95 µM, the GI50 [26] was 2.53 µM and the TGI [26] was 15.2 µM. The TGI [27] was 1.05 µM, the GI50 [28] was 1.56 µM and the TGI [28] was 5.16 µM. For the same compound, the GI50 [29] was 3.85 µM, the GI50 [30] was 1.78 µM and the TGI [30] was 8.15 µM. The GI50 [31] was 0.875 µM, the TGI [65] was 14 µM and the GI50 [33] was 1.89 µM. For the same compound, the TGI [33] was 10.8 µM, the GI50 [34] was 2.58 µM and the TGI [34] was 13.8 µM and 26.9 µM. For the same compound, the GI50 [35] was 4.31 µM, the TGI [35] was 14.8 µM and the GI50 [36] was 2.53 µM. It also gave a TGI [36] of 8.63 µM, a GI50 [37] of 2.46 µM and a GI50 [38] of 1.41 µM. For the same compound, the TGI [38] was 16.2 µM, the GI50 [39] was 4.64 µM and the TGI [39] was 17.1 µM. The GI50 [66] was 2.44 µM, the GI50 [40] was 1.61 µM and the TGI [40] was 11.5 µM. The GI50 [41] was 3.75 µM, the GI50 [42] was 3.02 µM and the TGI [42] was greater than 40.2 µM. The GI50 [43] was 0.691 µM, the TGI [43] was 4.56 µM and the GI50 [44] was 1.92 µM. The TGI [44] was 8.81 µM, the GI50 [45] was 2.83 µM and the TGI [45] was 13.7 µM. For the same compound, the GI50 [46] was 7.04 µM, the GI50 [47] was 3.71 µM and the TGI [47] was greater than 68.5 µM. The GI50 [49] was 3.81 µM, the TGI [49] was 15 µM and the GI50 [50] was 0.819 µM. For the same compound, the TGI [50] was 4.14 µM, the GI50 [51] was 1.58 µM and the TGI [67] was 0.276 µM. It also gave a GI50 [52] of 3.04 µM, a TGI [52] of 9.98 µM and a GI50 [53] of 1.62 µM. The TGI [53] was 5.42 µM, the GI50 [55] was 9.98 µM and the GI50 [56] was 9.04 µM. The TGI [56] was 43.2 µM and 6.51 µM, the GI50 [68] was 3.26 µM and the GI50 [57] was 1.6 µM. For the same compound, the TGI [57] was 9 µM, the TGI [58] was 17.3 µM and the TGI [69] was 24.2 µM. The GI50 [59] was 3.48 µM, the TGI [59] was 18.9 µM and 3.14 µM and the GI50 [60] was 0.354 µM. For the same compound, the TGI [60] was 6.15 µM, the GI50 [61] was 2.41 µM and the TGI [63] was 0.254 µM. The GI50 [64] was 4.7 µM and the TGI [64] was 33.4 µM and 3.65 µM.
